The source of these data is US9630922B2, “3-spiro-7-hydroxamic acid tetralins as HDAC inhibitors” (Forma Therapeutics, Inc., priority 2015, dated 2017).

In the experiment the target is T1, HDAC6 (Homo sapiens, UniProt Q9UBN7).
T1 construct: Full length human recombinant HDAC6 protein was expressed in baculoviral system; made in house; host or cells: baculoviral system
T1 sequence (Q9UBN7 1-1215): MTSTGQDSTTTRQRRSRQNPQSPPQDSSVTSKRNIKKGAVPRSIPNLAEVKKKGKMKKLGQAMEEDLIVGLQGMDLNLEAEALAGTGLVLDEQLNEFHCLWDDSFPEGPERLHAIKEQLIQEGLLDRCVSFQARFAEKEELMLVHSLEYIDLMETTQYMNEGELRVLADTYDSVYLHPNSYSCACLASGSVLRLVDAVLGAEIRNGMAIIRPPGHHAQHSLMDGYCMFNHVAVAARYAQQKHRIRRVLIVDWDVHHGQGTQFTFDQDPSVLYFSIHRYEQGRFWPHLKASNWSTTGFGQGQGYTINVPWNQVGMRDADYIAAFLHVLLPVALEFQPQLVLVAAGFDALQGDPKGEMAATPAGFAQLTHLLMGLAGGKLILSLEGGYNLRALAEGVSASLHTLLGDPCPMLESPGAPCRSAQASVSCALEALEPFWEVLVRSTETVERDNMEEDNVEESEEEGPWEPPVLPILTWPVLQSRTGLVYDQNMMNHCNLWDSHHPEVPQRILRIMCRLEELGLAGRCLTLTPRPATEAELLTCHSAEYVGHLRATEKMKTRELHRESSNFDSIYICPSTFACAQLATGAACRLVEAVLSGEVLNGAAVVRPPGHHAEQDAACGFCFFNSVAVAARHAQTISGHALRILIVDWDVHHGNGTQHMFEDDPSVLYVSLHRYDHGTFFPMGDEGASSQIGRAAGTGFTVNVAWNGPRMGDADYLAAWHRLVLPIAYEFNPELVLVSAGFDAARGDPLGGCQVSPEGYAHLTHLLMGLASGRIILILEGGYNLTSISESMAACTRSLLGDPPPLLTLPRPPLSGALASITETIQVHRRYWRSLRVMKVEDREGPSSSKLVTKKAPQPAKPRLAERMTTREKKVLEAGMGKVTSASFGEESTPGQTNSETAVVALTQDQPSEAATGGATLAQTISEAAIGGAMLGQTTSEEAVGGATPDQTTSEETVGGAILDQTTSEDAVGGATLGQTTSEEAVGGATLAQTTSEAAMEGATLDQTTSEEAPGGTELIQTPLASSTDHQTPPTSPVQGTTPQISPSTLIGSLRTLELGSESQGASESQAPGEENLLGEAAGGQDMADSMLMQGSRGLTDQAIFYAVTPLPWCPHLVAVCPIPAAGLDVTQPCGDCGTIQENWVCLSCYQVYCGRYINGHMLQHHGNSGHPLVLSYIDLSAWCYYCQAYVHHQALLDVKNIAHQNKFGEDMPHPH
Kind of experiment: In vitro Histone Deacetylase Assay (enzymatic HDAC6 electrophoretic mobility shift assay). Type of experiment: biochemical. The settings on record: full length human recombinant HDAC6, 1 nM enzyme, 2 μM peptide substrate RHKK(Ac)-NH2, 25° C.; read-out: HDAC6 activity range. On the procedure:
The enzymatic HDAC6 assay was performed using electrophoretic mobility shift assay. Full length human recombinant HDAC6 protein was expressed in baculoviral system and purified by affinity chromatography. The enzymatic reactions were assembled in 384 well plates in a total volume of 25 μL in a reaction buffer composing: 100 mM HEPES, pH7.5, 25 mM KCl, 0.1% bovine serum albumin, 0.01% Triton X-100, 1% DMSO (from compounds) 2 μM of the fluorescently labeled peptide substrate and enzyme. The enzyme was added at a final concentration of 1 nM. The peptide substrate RHKK(Ac)—NH2 was used. The compounds were tested at 12 concentrations spaced by 3× dilution intervals. Negative control samples (0%-inhibition in the absence of inhibitor) and positive control samples (100%-inhibition) were assembled in replicates of four in each assay plate. The reactions were incubated at 25° C. and quenched by the addition of 45 μL of termination buffer (100 mM HEPES, pH 7.5, 0.01% Triton X-100, 0.05% SDS).
The terminated assay plates were analyzed on LabChip® 3000 microfluidic electrophoresis instrument (Perkin Elmer/Caliper Life Sciences). The fluorescence intensity of the electrophoretically separated de-acetylated product and substrate peptide was measured. Activity in each sample was determined as the product to sum ratio (PSR): P/(S+P), where P is the peak height of the product peptide and S is the peak height of the substrate peptide. Percent inhibition (Pinh) is determined using the following equation:
Pinh=(PSR0%−PSRinh)/(PSR0%−PSR100%)*100, where PSRinh is the product sum ratio in the presence of inhibitor, PSR0% is the average product sum ration in the absence of inhibitor and PSR100% is the average product sum ratio in 100%-inhibition control samples. The IC50 values of inhibitors were determined by fitting the %-inhibition curves with 4 parameter dose-response model using XLfit 4 software.
As set forth in Table-31, below, IC50 values are defined as follows: IC50≦0.1 μM (+++); IC50>0.1 μM and ≦0.5 μM (++); IC50>0.5 μM (+).
On the technique in general: Mobility shift assays separate free from complexed probe on a gel.
Turning to `O=C(NO)c1ccc2c(c1)CCC1(CC(=O)N(c3cccnc3)C1)C2` (single isomer, unassigned) [Compound I-221], the IC50 was not above 0.1 µM. Regarding `COCCCN1CC2(CCc3cc(C(=O)NO)ccc3C2)CC1=O` (single isomer, unassigned) [Compound I-222], the IC50 was not above 0.1 µM. On to `O=C(NO)c1ccc2c(c1)CCC1(CC(=O)N(CC(F)(F)F)C1)C2` (single isomer, unassigned) [Compound I-223], for which the IC50 is not above 0.1 µM. For the molecule `O=C(NO)c1ccc2c(c1)CCC1(CC(=O)N(c3cccnc3)C1)C2` (single isomer, unassigned) [Compound I-224], the IC50 was not above 0.1 µM. In the case of `Cc1ccccc1CN1CC2(CCc3cc(C(=O)NO)ccc3C2)CC1=O` (single isomer, unassigned) [Compound I-225], the IC50 is not above 0.1 µM. The result for `O=C(NO)c1ccc2c(c1)CC[C@]1(CC(=O)N(Cc3cccnc3)C1)C2` (single isomer, unassigned) [Compound I-226] reads not above 0.1 µM; that for `O=C(NO)c1ccc2c(c1)CCC1(CC(=O)N(c3ccc(F)cc3)C1)C2` (single isomer, unassigned) [Compound I-227], not above 0.1 µM. For `O=C(NO)c1ccc2c(c1)CCC1(CCN(Cc3nc4ccccc4[nH]3)C1)C2` (centres unmarked) [Compound I-1, 1′-((1H-benzo[d]imidazol-2-yl)methyl)-N-hydroxy-3,4-dihydro-1H-spiro[naphthalene-2,3′-pyrrolidine]-6-carboxamide], the IC50 is not above 0.1 µM. On to `COc1ccc(CCN2CCC3(CCc4cc(C(=O)NO)ccc4C3)C2)cc1` (centres unmarked) [Compound I-2, N-hydroxy-1′-(4-methoxyphenethyl)-3,4-dihydro-1H-spiro[naphthalene-2,3′-pyrrolidine]-6-carboxamide], for which the IC50 was 0.1 to 0.5 µM. On to `COc1ccc(CN2CCC3(CCc4cc(C(=O)NO)ccc4C3)C2)cc1` (centres unmarked) [Compound I-3, N-hydroxy-1′-(4-methoxybenzyl)-3,4-dihydro-1H-spiro[naphthalene-2,3′-pyrrolidine]-6-carboxamide], for which the IC50 lay in the range of 0.1 to 0.5 µM. Consider `COc1ccc(CCN2CCC3(CCc4cc(C(=O)NO)ccc4C3)C2=O)cc1` (centres unmarked) [Compound I-4, N-hydroxy-1′-(4-methoxyphenethyl)-2′-oxo-3,4-dihydro-1H-spiro[naphthalene-2,3′-pyrrolidine]-6-carboxamide], for which the IC50 was not above 0.1 µM. As for `O=C(NO)c1ccc2c(c1)CCC1(CCN(c3nc4ccccc4[nH]3)C1=O)C2` (centres unmarked) [Compound I-5, 1′-(1H-benzo[d]imidazol-2-yl)-N-hydroxy-2′-oxo-3,4-dihydro-1H-spiro[naphthalene-2,3′-pyrrolidine]-6-carboxamide], the IC50 is not above 0.1 µM. The result for `O=C(NO)c1ccc2c(c1)CCC1(CCN(Cc3ccc(Cl)c(Cl)c3)C1=O)C2` (centres unmarked) [Compound I-6, 1′-(3,4-dichlorobenzyl)-N-hydroxy-2′-oxo-3,4-dihydro-1H-spiro[naphthalene-2,3′-pyrrolidine]-6-carboxamide] reads not above 0.1 µM; that for `O=C(NO)c1ccc2c(c1)CCC1(CCN(CC3CCCCC3)C1=O)C2` (centres unmarked) [Compound I-7, 1′-(cyclohexylmethyl)-N-hydroxy-2′-oxo-3,4-dihydro-1H-spiro[naphthalene-2,3′-pyrrolidine]-6-carboxamide], 0.1 to 0.5 µM. In the case of `Cc1ccc(CN2CCC3(CCc4cc(C(=O)NO)ccc4C3)C2=O)cc1` (centres unmarked) [Compound I-8, N-hydroxy-1′-(4-methylbenzyl)-2′-oxo-3,4-dihydro-1H-spiro[naphthalene-2,3′-pyrrolidine]-6-carboxamide], the IC50 was 0.1 to 0.5 µM. The result for `CN(C)CCCN1CCC2(CCc3cc(C(=O)NO)ccc3C2)C1=O` (centres unmarked) [Compound I-9, 1′-(3-(dimethylamino)propyl)-N-hydroxy-2′-oxo-3,4-dihydro-1H-spiro[naphthalene-2,3′-pyrrolidine]-6-carboxamide] reads 0.1 to 0.5 µM.

As to `O=C(NO)c1ccc2c(c1)CC[C@]1(CCN(c3cccnc3)C1=O)C2` [Compound I-10, (R)-N-hydroxy-2′-oxo-1′-(pyridin-3-yl)-3,4-dihydro-1H-spiro[naphthalene-2,3′-pyrrolidine]-6-carboxamide], the IC50 was not above 0.1 µM. With `O=C(NO)c1ccc2c(c1)CC[C@@]1(CCN(c3cccnc3)C1=O)C2` [Compound I-11, (S)-N-hydroxy-2′-oxo-1′-(pyridin-3-yl)-3,4-dihydro-1H-spiro[naphthalene-2,3′-pyrrolidine]-6-carboxamide], the IC50 was not above 0.1 µM. `COCCn1c(N2CC[C@]3(CCc4cc(C(=O)NO)ccc4C3)C2=O)nc2ccccc21` [Compound I-12, (R)-N-hydroxy-1′-(1-(2-methoxyethyl)-1H-benzo[d]imidazol-2-yl)-2′-oxo-3,4-dihydro-1H-spiro[naphthalene-2,3′-pyrrolidine]-6-carboxamide]: the IC50 fell in the range of 0.1 to 0.5 µM. In the case of `COCCn1c(N2CC[C@@]3(CCc4cc(C(=O)NO)ccc4C3)C2=O)nc2ccccc21` [Compound I-13, (S)-N-hydroxy-1′-(1-(2-methoxyethyl)-1H-benzo[d]imidazol-2-yl)-2′-oxo-3,4-dihydro-1H-spiro[naphthalene-2,3′-pyrrolidine]-6-carboxamide], the IC50 was not above 0.1 µM. In the case of `O=C(NO)c1ccc2c(c1)CC[C@]1(CCN(Cc3ccncc3)C1=O)C2` [Compound I-14, (R)-N-hydroxy-2′-oxo-1′-(pyridin-4-ylmethyl)-3,4-dihydro-1H-spiro[naphthalene-2,3′-pyrrolidine]-6-carboxamide], the IC50 was more than 0.5 µM.

Turning to `O=C(NO)c1ccc2c(c1)CC[C@@]1(CCN(Cc3ccncc3)C1=O)C2` [Compound I-15, (S)-N-hydroxy-2′-oxo-1′-(pyridin-4-ylmethyl)-3,4-dihydro-1H-spiro[naphthalene-2,3′-pyrrolidine]-6-carboxamide], the IC50 was not above 0.1 µM. For `O=C(NO)c1ccc2c(c1)CC[C@]1(CCN(c3ccncc3)C1=O)C2` [Compound I-16, (R)-N-hydroxy-2′-oxo-1′-(pyridin-4-yl)-3,4-dihydro-1H-spiro[naphthalene-2,3′-pyrrolidine]-6-carboxamide], the IC50 was 0.1 to 0.5 µM. For `O=C(NO)c1ccc2c(c1)CC[C@@]1(CCN(c3ccncc3)C1=O)C2` [Compound I-17, (S)-N-hydroxy-2′-oxo-1′-(pyridin-4-yl)-3,4-dihydro-1H-spiro[naphthalene-2,3′-pyrrolidine]-6-carboxamide], the IC50 is not above 0.1 µM. Take `O=C(NO)c1ccc2c(c1)CC[C@]1(CCN(Cc3cccnc3)C1=O)C2` [Compound I-18, (R)-N-hydroxy-2′-oxo-1′-(pyridin-3-ylmethyl)-3,4-dihydro-1H-spiro[naphthalene-2,3′-pyrrolidine]-6-carboxamide]: the IC50 is not above 0.1 µM. As for `O=C(NO)c1ccc2c(c1)CC[C@@]1(CCN(Cc3cccnc3)C1=O)C2` [Compound I-19, (S)-N-hydroxy-2′-oxo-1′-(pyridin-3-ylmethyl)-3,4-dihydro-1H-spiro[naphthalene-2,3′-pyrrolidine]-6-carboxamide], the IC50 was not above 0.1 µM.
